The values below come from patent publication US9492365B2, “Use of caftaric acid and derivatives in food supplement for regulating skin pigmentation” (Nestec S.A., priority 2010, dated 2016).

The test system of data set [1] is HDF. Briefly: Highest non cytotoxic concentration on HDF. In kind it is cell-based. Conditions: HDF cells.
The test system of data set [2] is HPEK. Briefly: Highest non cytotoxic concentration on HPEK. In kind it is cell-based, human. The following applies: HPEK cells.
Data set [3] concerns B16 murine melanocytes. Briefly: Production of melanin by B16 murine melanocyte cell line. The format is cell-based. The following applies: B16 melanocytes treated for 72 hours, presence or absence of NDP-MSH; relative to control (FIG. 1); Kojic acid at 400 μg/mL. How it is done: In order to evaluate the potential beneficial effect of ingredients towards skin de- or pro-pigmentation we used 2D culture of murine melanocytes (B16) and we performed 2 tests: 1—assessment of melanin production and 2—assessment of tyrosinase production. 1. The cell culture conditions. • B16 cells were cultured in DMEM 1 g/L glucose without phenol red supplemented with 10% foetal calf serum, in a humidified chamber at 37° C. and containing 5% CO2. 2. The production of melanin by B16 murine melanocyte cell line. • Cells were incubated with the selected ingredients or the test references (Kojic acid at 400 μg/mL) for 72 hours, in the presence or absence of NDP-MSH an analog of MSH. The total quantity of melanin (extracellular and intracellular) was evaluated by measurement of the optical density at 405 nm of each sample against melanin standards in presence or in absence of NDP-MSH.

The test system of data set [4] is tyrosinase. Briefly: Production of tyrosinase by B16 murine melanocyte cell line (immunolabeling). The format is cell-based. The following applies: B16 melanocytes, 48 hours, immunolabeling (FIG. 2). On the procedure: In order to evaluate the potential beneficial effect of ingredients towards skin de- or pro-pigmentation we used 2D culture of murine melanocytes (B16) and we performed 2 tests: 1—assessment of melanin production and 2—assessment of tyrosinase production. 1. The cell culture conditions. • B16 cells were cultured in DMEM 1 g/L glucose without phenol red supplemented with 10% foetal calf serum, in a humidified chamber at 37° C. and containing 5% CO2. 3. The production of tyrosinase by B16 murine melanocyte cell line. • Cells were incubated with the selected ingredients or the test references (Kojic acid at 400 μg/mL) for 48 hours. The production of tyrosinase was evaluated by immunolabeling.

The test system of data set [5] is filaggrin. Briefly: Synthesis of filaggrin by human epidermal keratinocytes (immunolabeling). In kind it is cell-based. The following applies: human primary epidermal keratinocytes, 144 hours. On the procedure: The potential beneficial effect of the Extracts of Example 1 towards skin barrier function and skin hydration was evaluated by using 2D culture of human primary epidermal keratinocytes and we assessed their synthesis of filaggrin. Human epidermal keratinocytes were cultured in control keratinocytes-SFM medium, in a humidified chamber at 37° C. and containing 5% CO2. Cells were incubated with the selected ingredients or the test references (CaCl2 at 1.5 mM) for 144 hours. The production of filaggrin by was evaluated by immunolabeling.

Consider `O=C(/C=C/c1ccc(O)c(O)c1)O[C@@H](C(=O)O)[C@@H](O)C(=O)O` [Caftaric acid], for which, in data set [1], the “Highest non cytotoxic conc. on HDF” value stood at 1 mM. The “Highest non cytotoxic conc. on HPEK” value in data set [2] is listed as 1 mM. In addition, the Melanin production entry in data set [3] was “decreased the production of melanin in vitro, more efficiently than the tested chicory extract MS-70”. The Production of tyrosinase result in data set [4] is reported as “decreased by these ingredients but to a limited extent”. Moreover, the Filaggrin production result in data set [5] is on record as “increased filaggrin production”.

Turning to `O=c1cc(CO)occ1O` [Kojic acid, reference compound], in data set [3], the Melanin production entry is on record as “decrease in melanin production”.
